Counter-ions that a name gives are not always drawn.

We go through 25 compounds from US20190062305A1, “PYRIDYL OR PYRAZINYL COMPOUNDS CARRYING A METHYL-BOUND ALPHA-AMINO ACID AMIDE GROUP” (ABBVIE DEUTSCHLAND GMBH & CO. KG, priority 2015, published 2019).

The assay addresses T1, 5-HT2C receptor (Homo sapiens, UniProt P28335).
T1 construct: host or cells: U2OS
As to the kind of experiment: Human 5-HT2C functional assay (beta-arrestin2 recruitment, U2OS_HTR2C_β-Arrestin cells). Format: cell-based. Conditions: for EC50: beta-arrestin2 recruitment, U2OS_HTR2C_β-Arrestin cells, 1.5 h incubation, read-out: EC50 5-HT2C (potency in functional assay); for Emax: relative efficacy vs response to 10 μM 5-HT or maximal 5-HT effect (100%). Here is the method:
The functional activity of compounds of formula I was assayed by incubation with U2OS_HTR2C_β-Arrestin cells (DiscoverX, 93-0289C3) to induce beta-arrestin2 recruitment to the 5-HT2C receptor. The agonist-induced recruitment and proximity of the receptor and beta-arrestin2 leads to complementation and formation of active β-galactosidase. The enzyme complementation results in enzyme activity, which is measured following the termination of the agonist incubation using DiscoveRx's detection reagent, which contains a chemiluminescent substrate which produces a high intensity signal. Cells were plated and a medium-change to a 1% serum containing medium was performed 24h later. The next day, test compounds were added and incubated for 1.5 h before addition of detection reagent.
The response produced was measured and compared with the response produced by 10 [mu]M 5-HT or the maximal effect induced by 5-HT (defined as 100%) to which it was expressed as a percentage response (relative efficacy). Dose response curves were constructed using Graphpad Prism (Graph Software Inc.) or using in house adapted software using a 4 parameter dose response model with variable slope (fit=(Bottom+(Top-Bottom)/(1+10^∧((Log EC50−x)*HillSlope))res=(y-fit)). Results are compiled in the table below.

T1 sequence (P28335 33-458): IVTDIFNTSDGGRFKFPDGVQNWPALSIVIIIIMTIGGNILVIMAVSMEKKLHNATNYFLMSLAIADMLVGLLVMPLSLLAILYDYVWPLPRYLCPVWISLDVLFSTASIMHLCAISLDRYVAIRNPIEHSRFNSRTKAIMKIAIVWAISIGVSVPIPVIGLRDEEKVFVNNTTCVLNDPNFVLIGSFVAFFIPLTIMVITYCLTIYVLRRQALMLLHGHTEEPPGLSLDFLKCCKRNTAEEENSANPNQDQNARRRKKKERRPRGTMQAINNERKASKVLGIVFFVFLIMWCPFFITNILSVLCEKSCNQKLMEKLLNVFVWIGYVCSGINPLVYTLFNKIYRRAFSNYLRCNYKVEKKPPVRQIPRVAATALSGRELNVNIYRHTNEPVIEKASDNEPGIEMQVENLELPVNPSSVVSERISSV
T1 sequence (P32121 whole entry partner): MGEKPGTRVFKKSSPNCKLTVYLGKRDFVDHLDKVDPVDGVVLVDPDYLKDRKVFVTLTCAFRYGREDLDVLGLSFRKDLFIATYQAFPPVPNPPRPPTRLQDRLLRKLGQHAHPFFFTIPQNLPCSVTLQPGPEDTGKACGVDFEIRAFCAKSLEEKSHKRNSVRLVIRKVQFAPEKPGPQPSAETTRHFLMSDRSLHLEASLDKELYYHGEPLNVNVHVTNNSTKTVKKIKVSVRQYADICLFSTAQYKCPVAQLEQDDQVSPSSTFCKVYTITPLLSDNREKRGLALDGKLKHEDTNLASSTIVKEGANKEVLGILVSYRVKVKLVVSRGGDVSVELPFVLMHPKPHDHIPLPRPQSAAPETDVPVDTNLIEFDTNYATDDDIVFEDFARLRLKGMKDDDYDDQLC

As for `COc1nc(NCC2CCC(C(F)(F)F)CC2)c(F)cc1CNC(=O)[C@@H]1CCCN1` (single isomer, unassigned) [Example 149], the EC50 (commonly the concentration needed to bring the measured effect to its halfway point) is 20 to 200 nM.

Regarding `COc1nc(OCc2cc(F)cc(F)c2)c(F)cc1CNC(=O)[C@@H]1CCCN1` [Example 5, (S)—N-((6-((3,5-Difluorobenzyl)oxy)-5-fluoro-2-methoxypyridin-3-yl)methyl)pyrrolidine-2-carboxamide Hydrochloride], the EC50 was less than 20 nM and the Emax (usually the size of the effect at its maximum, as opposed to the concentration needed) was greater than 70%.

On to `COc1nc(OC[C@@H]2CCC(F)(F)C2)c(F)cc1CNC(=O)[C@@H]1CCCN1C` [Example 16, (2S)—N-[[6-[[(1R)-3,3-Difluorocyclopentyl]methoxy]-5-fluoro-2-methoxy-3-pyridyl]methyl]-1-methyl-pyrrolidine-2-carboxamide], for which the EC50 was less than 20 nM and the Emax was greater than 70%.

In the case of `COc1nc(OC2CCC(F)(F)CC2)c(F)cc1CNC(=O)[C@@H]1C=CCN1C` [Example 21, (2S)—N-[[6-(4,4-Difluorocyclohexoxy)-5-fluoro-2-methoxy-3-pyridyl]methyl]-1-methyl-2,5-dihydropyrrole-2-carboxamide], the EC50 is 20 to 200 nM and the Emax is greater than 70%.

For `COc1nc(OCC23CC(C2)C3)c(F)cc1CNC(=O)[C@@H]1CCCN1` [Example 22, (S)—N-((6-(Bicyclo[1.1.1]pentan-1-ylmethoxy)-5-fluoro-2-methoxypyridin-3-yl)methyl)pyrrolidine-2-carboxamide Hydrochloride], the EC50 was less than 20 nM and the Emax is greater than 70%.

In the case of `COc1nc(OC2CCC(F)(F)CC2)c(F)cc1CNC(=O)[C@@H]1CCN1C` [Example 39, (2S)—N-[[6-(4,4-Difluorocyclohexoxy)-5-fluoro-2-methoxy-3-pyridyl]methyl]-1-methyl-azetidine-2-carboxamide; Succinic Acid], the EC50 fell in the range of 20 to 200 nM and the Emax fell in the range of 50 to 70%.

As to `COc1nc(OCC2CC2(F)F)c(F)cc1CNC(=O)[C@@H]1CCCN1` (stereo partly drawn) [Example 41, (2S)—N-[[6-[(2,2-Difluorocyclopropyl)methoxy]-5-fluoro-2-methoxy-3-pyridyl]methyl]pyrrolidine-2-carboxamide; Succinic Acid], the EC50 is less than 20 nM and the Emax was greater than 70%.

As to `COc1nc(OCCC(F)(F)C(F)(F)F)c(F)cc1CNC(=O)[C@@H]1CCCN1` [Example 45, (2S)—N-[[5-Fluoro-2-methoxy-6-(3,3,4,4,4-pentafluorobutoxy)-3-pyridyl]methyl]-pyrrolidine-2-carboxamide; Succinic Acid], the EC50 was less than 20 nM and the Emax was greater than 70%.

`COc1nc(OC(C)C(F)(F)C(F)(F)F)c(F)cc1CNC(=O)[C@@H]1CCCN1` (stereo partly drawn) [Example 50, (2S)—N-[[5-Fluoro-2-methoxy-6-(2,2,3,3,3-pentafluoro-1-methyl-propoxy)-3-pyridyl]methyl]pyrrolidine-2-carboxamide; Succinic Acid]: the EC50 is less than 20 nM and the Emax is greater than 70%.

Take `COc1nc(OC2CCCCC2C(F)(F)F)c(F)cc1CNC(=O)[C@@H]1CCCN1` (stereo partly drawn) [Example 57, (2S)—N-[[5-Fluoro-2-methoxy-6-[2-(trifluoromethyl)cyclohexoxy]-3-pyridyl]methyl]pyrrolidine-2-carboxamide; 2,2,2-trifluoroacetic Acid]: the EC50 is less than 20 nM and the Emax was greater than 70%.

Consider `COc1nc(OC2CC3C(C2)C3(F)F)c(F)cc1CNC(=O)C1CCCN1C` (stereo not drawn) [Example 64, N-[[6-[(6,6-Difluoro-3-bicyclo[3.1.0]hexanyl)oxy]-5-fluoro-2-methoxy-3-pyridyl]methyl]-1-methyl-pyrrolidine-2-carboxamide Dihydrochloride], for which the 50% effective concentration (EC50) is less than 20 nM and the Emax is greater than 70%.

Take `COc1nc(OC2CCC(OC(F)F)CC2)c(F)cc1CNC(=O)[C@@H]1CCCN1` (stereo partly drawn) [Example 67, (2S)—N-[[6-[4-(Difluoromethoxy)cyclohexoxy]-5-fluoro-2-methoxy-3-pyridyl]-methyl]pyrrolidine-2-carboxamide]: the EC50 is less than 20 nM and the Emax is greater than 70%.

Take `COc1nc(OCC(F)(C(F)(F)F)C(F)(F)F)c(F)cc1CNC(=O)[C@@H]1CCCN1` [Example 69, (S)—N-((5-Fluoro-2-methoxy-6-(2,3,3,3-tetrafluoro-2-(trifluoromethyl)propoxy)pyridin-3-yl)methyl)pyrrolidine-2-carboxamide Hydrochloride]: the EC50 is less than 20 nM and the Emax is greater than 70%.

Regarding `COc1nc(OCC23CC4CC(CC(C4)C2)C3)c(F)cc1CNC(=O)[C@@H]1CCCN1` [Example 70, (2S)—N-[[6-(1-Adamantylmethoxy)-5-fluoro-2-methoxy-3-pyridyl]methyl]-pyrrolidine-2-carboxamide; 2,2,2-trifluoroacetic Acid], the EC50 is less than 20 nM and the Emax is greater than 70%.

For `COc1nc(O[C@H]2CC[C@H](C(F)(F)F)CC2)c(F)cc1CNC(=O)[C@H]1NC[C@@H]1C` [Example 80, (2S,3 S)—N-[[5-Fluoro-2-methoxy-6-[4-(trifluoromethyl)cyclohexoxy]-3-pyridyl]methyl]-3-methyl-azetidine-2-carboxamide; Fumaric Acid], the EC50 lay within 20 to 200 nM and the Emax was greater than 70%.

With `COc1nc(OC2CCC(C(F)(F)F)CC2)c(F)cc1CNC(=O)[C@H]1NC[C@@H]2C[C@@H]21` (stereo partly drawn) [Example 85, (1R,4S,5S)—N-[[5-Fluoro-2-methoxy-6-[4-(trifluoromethyl)cyclohexoxy]-3-pyridyl]methyl]-3-azabicyclo[3.1.0]hexane-4-carboxamide Hydrochloride], the EC50 is less than 20 nM and the Emax is 30 to 50%.

In the case of `COc1nc(O[C@H]2C[C@H](C(F)(F)F)C2)c(F)cc1CN(C)C(=O)[C@@H]1CCCN1` [Example 120, (2S)—N-[[5-Fluoro-2-methoxy-6-[trans-3-(trifluoromethyl)cyclobutoxy]-3-pyridyl]-methyl]-N-methyl-pyrrolidine-2-carboxamide Hydrochloride], the EC50 was less than 20 nM and the Emax fell in the range of 50 to 70%.

In the case of `COc1nc(O[C@H]2C[C@@H](C(F)(F)F)C2)c(F)cc1CN(C)C(=O)[C@@H]1CCCN1` [Example 121, (2S)—N-[[5-Fluoro-2-methoxy-6-[cis-3-(trifluoromethyl)cyclobutoxy]-3-pyridyl]methyl]-N-methyl-pyrrolidine-2-carboxamide Hydrochloride], the EC50 was less than 20 nM and the Emax was 50 to 70%.

As for `COc1nc(OCc2cc(F)cc(F)c2)c(F)cc1CN(C)C(=O)[C@@H]1CCCN1` [Example 122, (2S)—N-[[6-[(3,5-Difluorophenyl)methoxy]-5-fluoro-2-methoxy-3-pyridyl]methyl]-N-methyl-pyrrolidine-2-carboxamide Hydrochloride], the EC50 is less than 20 nM and the Emax was greater than 70%.

In the case of `COc1nc(OC2CCC(F)(F)C2)c(F)cc1CN(C)C(=O)[C@@H]1CCCN1` (stereo partly drawn) [Example 123, (2S)—N-[[6-(3,3-Difluorocyclopentoxy)-5-fluoro-2-methoxy-3-pyridyl]methyl]-N-methyl-pyrrolidine-2-carboxamide Hydrochloride], the EC50 was less than 20 nM and the Emax was in the range of 50 to 70%.

On to `COc1nc(OCc2ccc(F)cc2)c(F)cc1CN(C)C(=O)[C@@H]1CCCN1` [Example 124, (2S)—N-[[5-Fluoro-6-[(4-fluorophenyl)methoxy]-2-methoxy-3-pyridyl]methyl]-N-methyl-pyrrolidine-2-carboxamide Hydrochloride], for which the EC50 lay within 20 to 200 nM and the Emax lay within 50 to 70%.

Take `COc1nc(CC2CCCCC2)c(F)cc1CNC(=O)[C@@H]1CCCN1` [Example 129, (2S)—N-[[6-(Cyclohexylmethyl)-5-fluoro-2-methoxy-3-pyridyl]methyl]pyrrolidine-2-carboxamide]: the EC50 was less than 20 nM and the Emax is greater than 70%.

Regarding `COc1nc(N2CCCC2)c(F)cc1CNC(=O)[C@@H]1CCCN1` [Example 135, (2S)—N-[(5-Fluoro-2-methoxy-6-pyrrolidin-1-yl-3-pyridyl)methyl]pyrrolidine-2-carboxamide; 2,2,2-trifluoroacetic Acid], the EC50 lay within 20 to 200 nM and the Emax is greater than 70%.

Consider `COc1nc(N2C[C@@H]3CC(F)(F)C[C@@H]3C2)c(F)cc1CNC(=O)[C@@H]1CCCN1` [Example 181, (2S)—N-[[6-[(3aR,6aS)-5,5-Difluoro-1,3,3a,4,6,6a-hexahydrocyclopenta[c]pyrrol-2-yl]-5-fluoro-2-methoxy-3-pyridyl]methyl]pyrrolidine-2-carboxamide; 2,2,2-trifluoroacetic Acid], for which the EC50 is less than 20 nM.

For the compound `COc1nc(C(F)(F)C(Cl)c2ccccc2)c(F)cc1CN(C)C(=O)C1CCCN1` (stereo not drawn) [Example 192, N-[[6-(2-Chloro-1,1-difluoro-2-phenyl-ethyl)-5-fluoro-2-methoxy-3-pyridyl]-methyl]-N-methyl-pyrrolidine-2-carboxamide Dihydrochloride], the EC50 was in the range of 200 to 1000 nM and the Emax fell in the range of 50 to 70%.
